How the values were obtained:
Assay type in all cases: in vivo
[1] = tested on: Amaranthus viridis (AMAVI); test: B2 drilled field trial Brazil, post-emergence, AMAVI; conditions: 100 g ai/ha, 100=total damage, 0=no damage
Method: (§1) Seeds of a variety of test species were used in drilled field trials to look at the control of important weed species present in corn crops as well as the effect on soybean (a volunteer crop in corn). Trials were carried out in Brazil in the summer season.
(§2) Plot size was 10-12 m^2, and two replicates were carried out per treatment. Plants were treated post-emergence at the 4 leaf stage. Fungicides and insecticides were used as necessary for plant health. The test was evaluated at 7 and 30 days after application (Amaranthus viridis (AMAVI), Bidens pilosa (BIDPI), Euphorbia heterophylla (EPPHL)) and 9 and 37 days after application (Brachiaria plantaginea (BRAPL) and soybean (Glycine max GLXMA) with 100=total damage to plant and 0=no damage to plant.
(§3) Expected results were calculated using the Colby Formula.

[2] = tested on: Euphorbia heterophylla (EPPHL); test: B2 drilled field trial Brazil, post-emergence, EPPHL; conditions: 100 g ai/ha, 100=total damage, 0=no damage
Method: as §1, §2, §3

[3] = tested on: Brachiaria plantaginea (BRAPL); test: B2 drilled field trial Brazil, post-emergence, BRAPL; conditions: 100 g ai/ha, 100=total damage, 0=no damage
Method: as §1, §2, §3

[4] = tested on: ABUTH (Abutilon theophrasti); test: B1 glasshouse post-emergence herbicidal activity, ABUTH; conditions: after 14 days, 100=total damage, 0=no damage
Method: (§4) Seeds of a variety of test species HORVW (Hordeum vulgare—barley), ABUTH (Abutilon theophrasti), AMARE (Amaranthus retroflexus) and ECHCG (Echinochloa crus-galli) were sown in standard soil in pots. After cultivation for 10 days cultivation under controlled conditions in a glasshouse (at 24/16° C., day/night; 14 hours light; 65% humidity), the plants were sprayed with an aqueous spray solution derived from the formulation of the technical active ingredient in 0.6 ml acetone and 45 ml formulation solution containing 10.6% Emulsogen EL (Registry number 61791-12-6), 42.2% N-methyl pyrrolidone, 42.2% dipropylene glycol monomethyl ether (CAS RN 34590-94-8) and 0.2% X-77 (CAS RN 11097-66-8).
(§5) The test plants were then grown in a glasshouse under controlled conditions in a glasshouse (at 24/16° C., day/night; 14 hours light; 65% humidity) and watered twice daily. After 14 days, the test was evaluated (100=total damage to plant; 0=no damage to plant).

[5] = tested on: ECHCG (Echinochloa crus-galli); test: B1 glasshouse post-emergence herbicidal activity, ECHCG; conditions: after 14 days, 100=total damage, 0=no damage
Method: as §4, §5

[6] = tested on: soybean (Glycine max GLXMA); test: B2 drilled field trial Brazil, post-emergence, soybean; conditions: 100 g ai/ha, 100=total damage, 0=no damage
Method: as §1, §2, §3

Bidens pilosa (BIDPI) = test: B2 drilled field trial Brazil, post-emergence, BIDPI; conditions: 100 g ai/ha, 100=total damage, 0=no damage
Method: as §1, §2, §3

[7] = tested on: AMARE (Amaranthus retroflexus); test: B1 glasshouse post-emergence herbicidal activity, AMARE; conditions: after 14 days, 100=total damage, 0=no damage
Method: as §4, §5

[8] = tested on: HORVW (Hordeum vulgare—barley); test: B1 glasshouse post-emergence herbicidal activity, barley; conditions: after 14 days, 100=total damage, 0=no damage
Method: as §4, §5

COc1ccc(-n2nc(C)cc(C(=O)C3C(=O)CCCC3=O)c2=O)cc1OC [Compound 2.3, 2-[2-(3,4-Dimethoxyphenyl)-6-methyl-3-oxo-pyridazine-4-carbonyl]cyclohexane-1,3-dione]
AMAVI 7DAA Observed ([1]; 7 days after application): 65
AMAVI 30 DAA Observed ([1]; 30 days after application): 70
EPPHL 7DAA Observed ([2]; 7 days after application): 58
EPPHL 30 DAA Observed ([2]; 30 days after application): 42
BRAPL 9DAA Observed ([3]; 9 days after application): 78
BRAPL 37 DAA Observed ([3]; 37 days after application): 37
ABUTH ([4]; Rate 125 g/ha): 100
ABUTH ([4]; Rate 250 g/ha): 100
ECHCG ([5]; Rate 125 g/ha): 100
ECHCG ([5]; Rate 250 g/ha): 100
GLXMA 9DAA Observed ([6]; 9 days after application): 55
GLXMA 37 DAA Observed ([6]; 37 days after application): 100
BIDPI 7DAA Observed (Bidens pilosa (BIDPI); 7 days after application): 45
BIDPI 30 DAA Observed (Bidens pilosa (BIDPI); 30 days after application): 43
AMARE ([7]; Rate 125 g/ha): 100
AMARE ([7]; Rate 250 g/ha): 100
HORVW ([8]; Rate 125 g/ha): 0
HORVW ([8]; Rate 250 g/ha): 0

From patent US20190239509A1, “METHOD OF CONTROLLING PLANTS” (SYNGENTA PARTICIPATIONS AG, priority 2016, published 2019)
